Values joined by “and” are separate entries in the source; they are usually repeats but may differ in a detail not shown here. Identical values can stand only once.
melting point | SMILES
169 °C | CCC1C(=O)CCC1=O [2-ethyl-1,3-cyclopentanedione]
-132 °C | C=C(CC)CC [2-ethyl-1-butene]
-76 °C | CCCCC(CC)CO (centres undefined) [2-ethyl-1-hexanol]
44 °C | CCC(C)(CO)CO [2-ethyl-2-methyl-1,3-propanediol]
-15 °C | CCC(CC)C(=O)O [2-ethylbutyric acid]
-59 °C | CCCCC(CC)C(=O)O (centres undefined) [2-ethylhexanoic acid]
-76 °C | CCCCC(CC)CN (centres undefined) [2-ethylhexylamine]
157 °C | CC(=O)Nc1ccc(Cl)cc1F [2-fluoro-4-chloroacetanilide]
156 °C | N#Cc1c(O)cccc1F [2-fluoro-6-hydroxybenzonitrile]
93 °C | O=[N+]([O-])c1cccc(F)c1O [2-fluoro-6-nitrophenol]
113 °C | CC(C(=O)O)c1ccc(-c2ccccc2)c(F)c1 (stereo not drawn) [2-fluoro-alpha-methyl-4-biphenylacetic acid]
246 °C | OB(O)c1ccc(-c2ccccc2)c(F)c1 [2-fluorobiphenyl-4-boronic acid]
172 °C | OB(O)c1cccnc1F [2-fluoropyridine-3-boronic acid]
79 °C | N#CCC(=O)c1ccco1 [2-furoylacetonitrile]
-35 °C | CCCCCC(C)=O [2-heptanone]
-56 °C | CCCCC(C)=O [2-hexanone]
41 °C | COc1cccc(C=O)c1O [2-hydroxy-3-methoxybenzaldehyde]
152 °C | COc1cccc(C(=O)O)c1O [2-hydroxy-3-methoxybenzoic acid]
-90 °C | CC(C)I [2-iodopropane]
86 °C | CC(C)c1ccccc1B(O)O [2-isopropylbenzeneboronic acid]
192 °C | Sc1nc2ccccc2o1 [2-mercaptobenzoxazole]
37 °C | COc1ccc(C)cc1O [2-methoxy-5-methylphenol]

melting point | SMILES
165 °C | CNC1=CC2=NC(OC)=CC2=CC1 [2-methoxy-N-methyl-1H-indol-6-amine]
101 °C | COc1ccccc1C(=O)O [2-methoxybenzoic acid]
30 °C | COc1ccccc1O [2-methoxyphenol]
-137 °C | C=C(C)CC [2-methyl-1-butene]
70 °C | CC1=C(C#N)c2ccccc2C1 [2-methyl-1H-indene-3-carbonitrile]
100 °C | CC1=NCCN1 [2-methyl-2-imidazoline]
55 °C | CCCC(C)(CO)CO [2-methyl-2-propyl-1,3-propanediol]
35 °C | Cc1ccccc1CO [2-methylbenzyl alcohol]
39 °C | Cc1ccccc1CO [2-methylbenzyl_alcohol]
7 °C | Cc1ccccc1Cc1ccccc1 [2-methyldiphenylmethane]
59 °C | Cc1ccccc1NC=O [2-methylformanilide]
-89 °C | Cc1ccco1 [2-methylfuran]
129 °C | Cc1cc(O)ccc1O [2-methylhydroquinone]
-46 °C | CC(C)C(=O)O [2-methylpropanoic_acid]
120 °C | Cc1c(O)cccc1O [2-methylresorcinol]
103 °C | CCCc1c(O)cccc1O [2-n-propylresorcinol]
122 °C | c1ccc(-c2nc3ccccc3nc2-c2ccc3ccccc3c2)cc1 [2-naphthalen-2-yl-3-phenylquinoxaline]
267 °C | OB(O)c1ccc2ccccc2c1 [2-naphthaleneboronic acid]
100 °C | Nc1cc(C(F)(F)F)ccc1[N+](=O)[O-] [2-nitro-5-(trifluoromethyl)aniline]
148 °C | O=C(O)c1ccccc1[N+](=O)[O-] [2-nitrobenzoic acid]
49 °C | O=C(O)CC1CCCC1=O (centres undefined) [2-oxocyclopentylacetic acid]
116 °C | O=C(O)CCC(=O)C(=O)O [2-oxopentanedioic acid]

melting point | SMILES
-78 °C | CCCC(C)=O [2-pentanone]
58 °C | O=C1CCCCC1c1ccccc1 (centres undefined) [2-phenylcyclohexanone]
-5 °C | CC(C(=O)O)c1ccccc1 (centres undefined) [2-phenylpropionic acid]
-70 °C | Cc1ccccn1 [2-picoline]
-88 °C | CC(C)O [2-propanol]
186 °C | O=C1C(c2ccccn2)=Nc2ccccc21 [2-pyridin-2-yl-3H-indol-3-one]
10 °C | CCC(C)c1ccccc1O (centres undefined) [2-sec-butylphenol]
52 °C | Cc1ccc(O)c(C(C)(C)C)c1 [2-tert-butyl-4-methylphenol]
30 °C | CCCCCCCCCCCC(C)=O [2-tridecanone]
12 °C | CCCCCCCCCC(C)=O [2-undecanone]
141 °C | O=C1C=C(NCCNc2ccccc2)C(=O)c2ccccc21 [2-{[2-(phenylamino)ethyl]amino}naphthalene-1,4-dione]
8 °C | CC(=O)c1cccc(Br)c1 [3'-bromoacetophenone]
150 °C | Nc1cccc(C(=O)c2cccc(N)c2)c1 [3,3'-diaminobenzophenone]
-78 °C | C#CC(C)(C)C [3,3-Dimethylbut-1-yne]
-78 °C | C#CC(C)(C)C [3,3-dimethyl-1-butyne] [listing 1 of 2 here]
-78 °C | C#CC(C)(C)C [3,3-dimethyl-1-butyne] [listing 2 of 2 here]
286 °C | O=c1c(O)c(-c2ccc(O)cc2)oc2ccccc12 [3,4'-dihydroxyflavone]
245 °C | COc1cc(B(O)O)cc(OC)c1OC [3,4,5-trimethoxybenzeneboronic acid]
82 °C | COC1CC(C(=O)Cl)CC(OC)C1OC (centres undefined) [3,4,5-trimethoxycyclohexanecarbonyl chloride]
146 °C | COc1cc(O)cc(OC)c1OC [3,4,5-trimethoxyphenol]
154 °C | O=Cc1ccc(O)c(O)c1 [3,4-Dihydroxybenzaldehyde]
44 °C | O=Cc1ccc(Cl)c(Cl)c1 [3,4-dichlorobenzaldehyde]

melting point | SMILES
195 °C | O=C(O)/C=C/c1ccc(F)c(F)c1 [3,4-difluorocinnamic acid]
79 °C | Nc1ccc2c(c1)OCCCO2 [3,4-dihydro-2h-1,5-benzodioxepin-7-amine]
188 °C | O=C(O)CC1Sc2ccccc2NC1=O (centres undefined) [3,4-dihydro-3-oxo-2h-1,4-benzothiazine-2-acetic acid]
51 °C | COc1ccc(C(C)=O)cc1OC [3,4-dimethoxyacetophenone]
240 °C | COc1ccc(B(O)O)cc1OC [3,4-dimethoxybenzeneboronic acid]
102 °C | Cc1ccc(C(N)=O)cc1C [3,4-dimethylbenzamide]
220 °C | Cc1ccc(B(O)O)cc1C [3,4-dimethylbenzeneboronic acid]
-8 °C | CC1=CC(=O)CC(C)(C)C1 [3,5,5-Trimethylcyclohex-2-en-1-one]
68 °C | O=Cc1cc(Cl)cc(Cl)c1 [3,5-Dichlorobenzaldehyde]
188 °C | CC(C)(C)c1cc(C=O)cc(C(C)(C)C)c1O [3,5-di-tert-butyl-4-hydroxybenzaldehyde]
220 °C | O=C(O)c1cc(Br)cc(Br)c1 [3,5-dibromobenzoic acid]
57 °C | Cc1ccc(C(=O)c2cc(Cl)cc(Cl)c2)c(C)c1 [3,5-dichloro-2',4'-dimethylbenzophenone]
32 °C | O=S(=O)(Cl)c1cc(Cl)cc(Cl)c1 [3,5-dichlorobenzenesulfonyl chloride]
66 °C | N#Cc1cc(Cl)cc(Cl)c1 [3,5-dichlorobenzonitrile]
26 °C | O=C(Cl)c1cc(Cl)cc(Cl)c1 [3,5-dichlorobenzoyl chloride]
114 °C | COc1c(F)cc(F)cc1B(O)O [3,5-difluoro-2-methoxybenzeneboronic acid]
136 °C | O=C(O)C(O)c1cc(F)cc(F)c1 (centres undefined) [3,5-difluoromandelic acid]
156 °C | COc1cc(C(=O)NN)cc(OC)c1O [3,5-dimethoxy-4-hydroxybenzhydrazide]
34 °C | COc1cc(OC)cc(C(C)=O)c1 [3,5-dimethoxyacetophenone]
46.3 °C | COc1cc(C=O)cc(OC)c1 [3,5-dimethoxybenzaldehyde]

SMILES | melting point
O=C(Cl)c1ccco1 [2-furoyl chloride] | -1 °C
S=C=Nc1ccccc1I [2-iodophenyl isothiocyanate] | 38 °C
Cc1ccccc1CCl [2-methylbenzyl chloride] | 2 °C
Cc1ccccc1CP(=O)(O)O [2-methylbenzylphosphonic acid] | 186 °C
Nc1ccccc1[N+](=O)[O-] [2-nitroaniline] | 72 °C
O=[N+]([O-])c1ccccc1O [2-nitrophenol] | 44.8 °C and 44.5 °C and 44 °C
O=C1CCCN1 [2-pyrrolidinone] | 24 °C
Nc1cccc(Cc2cccc(N)c2)c1 [3,3'-diaminodiphenylmethane] | 82 °C
COc1cc(C(=O)O)cc(OC)c1OC [3,4,5-trimethoxybenzoic acid] | 170 °C
Cc1ccc(N)c(N)c1 [3,4-diaminotoluene] | 88 °C
ClCc1ccc(Cl)c(Cl)c1 [3,4-dichlorobenzyl chloride] | -3 °C
Oc1ccc(Cl)c(Cl)c1 [3,4-dichlorophenol] | 68 °C and 66 °C
COc1ccc(/C=C/[N+](=O)[O-])cc1OC [3,4-dimethoxy-beta-nitrostyrene] | 140 °C
COc1ccc(C=O)cc1OC [3,4-dimethoxybenzaldehyde] | 44 °C
COc1ccc(C(=O)O)cc1OC [3,4-dimethoxybenzoic acid] | 181 °C
O=C(O)c1cc([N+](=O)[O-])cc([N+](=O)[O-])c1 [3,5-Dinitrobenzoic acid] | 206 °C
Nc1cc(Cl)cc(Cl)c1 [3,5-dichloroaniline] | 53 °C
N#Cc1cc(I)c(O)c(I)c1 [3,5-diiodo-4-hydroxybenzonitrile] | 204 °C
